The record followed here is ChEMBL document CHEMBL3137667, “[Drug-induced liver injury; fourteenth updated edition of the bibliographic database of liver injuries and related drugs]” (Gastroenterol Clin Biol, 2004).

Series [1] can be described thus: Highest frequency of moderate liver toxicity observed during clinical trials, expressed as a percentage. [column '% BIOL' in source]. Particulars: human.
Series [2] in a line: Highest frequency of acute liver toxicity observed during clinical trials, expressed as a percentage. [column '% AIGUE' in source]. Particulars: human.
The conditions of series [3]: human, serum.
For series [4] the following is noted: human, serum. This is another data set of the same source.
For series [5] the following is noted: human.
For series [6] the following is noted: human. The source holds these as a separate data set.
For series [7] the following is noted: human. The source holds these as a separate data set.
For series [8] the following is noted: human, serum, 4383 h.
For series [9] the following is noted: human. The source holds these as a separate data set.
For series [10] the following is noted: human. This is another data set of the same source.
For series [11] the following is noted: human. The source holds these as a separate data set.
The conditions of series [12]: human. The source holds these as a separate data set.
The conditions of series [13]: human. The source holds these as a separate data set.
For series [14] the following is noted: human. This is another data set of the same source.
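For Hepatotoxicity (association with vascular disease) in this document: count of indexed literature references reporting vascular liver injury in humans, e.g. peliosis hepatitis, hepatic veno-occlusive disease or Budd-Chiari syndrome.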
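For Hepatotoxicity (benign tumour) in this document: value is a count of indexed literature references citing a benign tumour confirmed by histopathology.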
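For Hepatotoxicity (choleostasis) in this document: human cholestatic liver injury, shown by histopathology or by peak ALT or AST elevation over alkaline phosphatase ratio below 2, value counts indexed literature reports.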
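For Hepatotoxicity (chronic liver disease) in this document: chronic liver injury confirmed by histopathology or persistently raised serum aminotransferase activity beyond 6 months, value given as the count of indexed literature references.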
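For Hepatotoxicity (cirrhosis) in this document: value is a count of indexed literature references reporting cirrhosis confirmed by histopathology.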
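For Hepatotoxicity (cytolytic) in this document: human cytolytic liver injury, shown by histopathology or by a ratio above 5 of peak ALT or AST elevation to alkaline phosphatase elevation, value counts indexed references.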
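For Hepatotoxicity (granulomatous hepatitis) in this document: value is a count of indexed literature references reporting granulomatous liver disease confirmed by histopathology.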
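For Hepatotoxicity (malignant tumour) in this document: malignant tumour confirmed by histopathology, value gives the count of indexed literature references reporting it.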
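For Hepatotoxicity (severe hepatitis) in this document: human clinical data: severe hepatitis, meaning potentially life-threatening liver failure or clinically observed cases, the value counts how many indexed literature references report it.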
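For Hepatotoxicity (steatosis) in this document: steatosis confirmed by histopathology, value is the count of indexed references.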

In the case of `CCCN[C@H]1CCc2nc(N)sc2C1` [PRAMIPEXOLE], the “Hepatotoxicity (moderate)” value in [1] (Liver) was determined as 7.1%; in series [3], 1. Also, the figures for the “Hepatotoxicity (acute)” value in series [2] (Liver) and in [4] were 0% and 0, respectively. The “Hepatotoxicity (cytolytic)” value in [5] (Liver) is reported as 0. In series [6] (Liver), the “Hepatotoxicity (choleostasis)” value is 0. For the same compound, the “Hepatotoxicity (severe hepatitis)” value in series [7] (Liver) worked out at 0. Besides, the “Hepatotoxicity (chronic liver disease)” value in series [8] turned out to be 0. Further, the “Hepatotoxicity (cirrhosis)” value in [9] worked out at 0. Besides, in [10] (Liver), the “Hepatotoxicity (granulomatous hepatitis)” value is reported as 0. Further, the “Hepatotoxicity (association with vascular disease)” value in [11] worked out at 0. Besides, the “Hepatotoxicity (steatosis)” value in series [12] was 0. The “Hepatotoxicity (malignant tumour)” value in series [13] is reported as 0. Further, the “Hepatotoxicity (benign tumour)” value in [14] came to 0.
As to `NCCC(O)(P(=O)(O)O)P(=O)(O)O` [PAMIDRONIC ACID], the “Hepatotoxicity (moderate)” value in series [1] is reported as 2.7%; in series [3], 3. Moreover, the entries for the “Hepatotoxicity (acute)” value in series [2] and in series [4] were 0% and 0, respectively. In addition, in series [5], the “Hepatotoxicity (cytolytic)” value is listed as 0. In addition, in [6], the “Hepatotoxicity (choleostasis)” value is 0. The “Hepatotoxicity (severe hepatitis)” value in series [7] is listed as 0. The “Hepatotoxicity (chronic liver disease)” value in [8] was found to be 0. In addition, the “Hepatotoxicity (cirrhosis)” value in series [9] is 0. In addition, in [10], the “Hepatotoxicity (granulomatous hepatitis)” value worked out at 0. Besides, in series [11], the “Hepatotoxicity (association with vascular disease)” value was 0. Further, in series [12], the “Hepatotoxicity (steatosis)” value worked out at 0. Moreover, the “Hepatotoxicity (malignant tumour)” value in [13] came to 0. Also, the “Hepatotoxicity (benign tumour)” value in [14] is 0.
`COc1ccc([C@@H]2Sc3cc(Cl)ccc3N(CCN(C)C)C(=O)[C@@H]2OC(C)=O)cc1` [CLENTIAZEM]: the “Hepatotoxicity (moderate)” value in series [1] was found to be 3.7%; in series [3], 1. In addition, the “Hepatotoxicity (acute)” value came to 0% in [2] and 0 in series [4]. Moreover, in series [5], the “Hepatotoxicity (cytolytic)” value amounted to 0. For the same compound, the “Hepatotoxicity (choleostasis)” value in [6] came to 0. The “Hepatotoxicity (severe hepatitis)” value in series [7] came to 0. In series [8], the “Hepatotoxicity (chronic liver disease)” value is 0. In addition, the “Hepatotoxicity (cirrhosis)” value in series [9] amounted to 0. Besides, the “Hepatotoxicity (granulomatous hepatitis)” value in [10] is 0. In addition, the “Hepatotoxicity (association with vascular disease)” value in series [11] is recorded as 0. The “Hepatotoxicity (steatosis)” value in [12] is reported as 0. For the same compound, the “Hepatotoxicity (malignant tumour)” value in series [13] turned out to be 0. For the same compound, the “Hepatotoxicity (benign tumour)” value in series [14] is reported as 0.
On to `CSc1ccc(C(=O)c2[nH]c(=O)[nH]c2C)cc1` [ENOXIMONE], for which the results for the “Hepatotoxicity (moderate)” value in series [1] and in [3] were 6% and 3, respectively. The “Hepatotoxicity (acute)” value turned out to be 0% in [2] and 0 in series [4]. For the same compound, the “Hepatotoxicity (cytolytic)” value in series [5] is 0. The “Hepatotoxicity (choleostasis)” value in series [6] is listed as 0. In [7], the “Hepatotoxicity (severe hepatitis)” value was found to be 0. For the same compound, the “Hepatotoxicity (chronic liver disease)” value in series [8] turned out to be 0. In series [9], the “Hepatotoxicity (cirrhosis)” value was determined as 0. Besides, in series [10], the “Hepatotoxicity (granulomatous hepatitis)” value worked out at 0. In addition, the “Hepatotoxicity (association with vascular disease)” value in series [11] is 0. Further, the “Hepatotoxicity (steatosis)” value in series [12] stood at 0. The “Hepatotoxicity (malignant tumour)” value in series [13] stood at 0. In addition, the “Hepatotoxicity (benign tumour)” value in series [14] is recorded as 0.
As to `O=C1NC(=S)NC(=O)C1C(=O)Nc1ccccc1` [MERBARONE], the entries for the “Hepatotoxicity (moderate)” value in [1] and in series [3] were 28.6% and 3, respectively. For the same compound, the “Hepatotoxicity (acute)” value in [2] came to 3.8%; in series [4], 1. Besides, the “Hepatotoxicity (cytolytic)” value in [5] is 0. Moreover, the “Hepatotoxicity (choleostasis)” value in series [6] worked out at 0. For the same compound, the “Hepatotoxicity (severe hepatitis)” value in [7] is on record as 0. The “Hepatotoxicity (chronic liver disease)” value in [8] amounted to 0. Also, in series [9], the “Hepatotoxicity (cirrhosis)” value is on record as 0. Further, the “Hepatotoxicity (granulomatous hepatitis)” value in series [10] stood at 0. The “Hepatotoxicity (association with vascular disease)” value in series [11] is 0. Also, the “Hepatotoxicity (steatosis)” value in series [12] stood at 0. In [13], the “Hepatotoxicity (malignant tumour)” value stood at 0. Further, the “Hepatotoxicity (benign tumour)” value in series [14] was 0.
Take NARTOGRASTIM: the figures for the “Hepatotoxicity (moderate)” value in [1] and in series [3] were 0% and 1, respectively. For the same compound, the results for the “Hepatotoxicity (acute)” value in [2] and in series [4] were 0% and 0, respectively. Besides, the “Hepatotoxicity (cytolytic)” value in [5] amounted to 0. The “Hepatotoxicity (choleostasis)” value in series [6] came to 0. Also, the “Hepatotoxicity (severe hepatitis)” value in series [7] was found to be 0. Moreover, in [8], the “Hepatotoxicity (chronic liver disease)” value was 0. For the same compound, the “Hepatotoxicity (cirrhosis)” value in series [9] is on record as 0. Moreover, the “Hepatotoxicity (granulomatous hepatitis)” value in series [10] is 0. Besides, the “Hepatotoxicity (association with vascular disease)” value in series [11] was 0. For the same compound, the “Hepatotoxicity (steatosis)” value in series [12] is given as 0. In [13], the “Hepatotoxicity (malignant tumour)” value turned out to be 0. Besides, the “Hepatotoxicity (benign tumour)” value in series [14] is recorded as 0.
